In publication PMC8213057, “Targeting ALK2: An Open Science Approach to Developing Therapeutics for the Treatment of Diffuse Intrinsic Pontine Glioma” (Journal of Medicinal Chemistry, 2020):

Key:
MKK7 = biological target: T1, MKK7 (Homo sapiens, UniProt O14733); conditions: 1 μM; Run 1, Run 2
T1 sequence (O14733 1-419): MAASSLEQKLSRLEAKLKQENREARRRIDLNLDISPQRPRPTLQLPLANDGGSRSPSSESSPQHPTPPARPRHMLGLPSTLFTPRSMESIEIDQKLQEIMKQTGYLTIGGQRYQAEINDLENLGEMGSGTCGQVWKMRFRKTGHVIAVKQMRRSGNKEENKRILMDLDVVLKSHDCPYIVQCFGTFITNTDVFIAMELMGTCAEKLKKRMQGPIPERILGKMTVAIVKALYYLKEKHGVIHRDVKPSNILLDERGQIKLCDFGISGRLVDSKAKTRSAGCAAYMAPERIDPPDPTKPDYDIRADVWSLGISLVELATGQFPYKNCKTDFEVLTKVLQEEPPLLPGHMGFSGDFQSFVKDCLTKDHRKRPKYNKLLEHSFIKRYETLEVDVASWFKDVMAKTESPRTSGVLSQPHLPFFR

MST4 = MST4 (Homo sapiens, UniProt Q9P289); conditions: 1 μM; Run 1, Run 2
ACK1 = ACK1 (Homo sapiens, UniProt Q07912); test: biochemical; conditions: read-out: % enzyme activity, 1 μM; Run 1, Run 2
CDK18/cyclin Y (PCTK3) = CDK18/cyclin Y (PCTK3) (Homo sapiens, UniProt Q07002); test: biochemical; conditions: read-out: % enzyme activity, 1 μM; Run 1, Run 2
CK1g1 = CK1g1 (Homo sapiens, UniProt Q9HCP0); test: biochemical; conditions: read-out: % enzyme activity, 1 μM; Run 1, Run 2
DMPK = biological target: T2, DMPK (Homo sapiens, UniProt Q09013); test: biochemical; conditions: read-out: % enzyme activity, 1 μM; Run 1, Run 2
T2 sequence (Q09013 1-629): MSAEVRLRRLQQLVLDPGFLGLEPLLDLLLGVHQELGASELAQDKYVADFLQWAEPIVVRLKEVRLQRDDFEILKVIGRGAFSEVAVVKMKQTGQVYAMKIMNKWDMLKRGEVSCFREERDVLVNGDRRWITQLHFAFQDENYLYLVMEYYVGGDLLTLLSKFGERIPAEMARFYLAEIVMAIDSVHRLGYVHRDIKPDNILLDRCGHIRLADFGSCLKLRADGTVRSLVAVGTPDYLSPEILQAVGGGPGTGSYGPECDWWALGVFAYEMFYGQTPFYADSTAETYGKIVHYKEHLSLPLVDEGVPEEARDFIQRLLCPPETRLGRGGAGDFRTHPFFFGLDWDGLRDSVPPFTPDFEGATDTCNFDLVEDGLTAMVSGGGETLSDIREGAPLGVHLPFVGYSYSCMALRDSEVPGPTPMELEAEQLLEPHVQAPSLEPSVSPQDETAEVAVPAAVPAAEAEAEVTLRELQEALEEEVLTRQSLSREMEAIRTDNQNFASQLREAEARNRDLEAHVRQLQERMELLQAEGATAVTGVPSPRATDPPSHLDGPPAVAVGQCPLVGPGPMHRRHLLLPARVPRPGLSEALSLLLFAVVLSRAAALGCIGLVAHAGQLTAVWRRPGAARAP

GSK3b = GSK3b (Homo sapiens, UniProt P49841); test: biochemical; conditions: read-out: % enzyme activity, 1 μM; Run 1, Run 2
PKCb2 = PKCb2 (Homo sapiens, UniProt P05771); test: biochemical; conditions: read-out: % enzyme activity, 1 μM; Run 1, Run 2
TBK1 = biological target: T3, TBK1 (Homo sapiens, UniProt Q9UHD2); test: biochemical; conditions: read-out: % enzyme activity, 1 μM; Run 1, Run 2
T3 sequence (Q9UHD2 1-729): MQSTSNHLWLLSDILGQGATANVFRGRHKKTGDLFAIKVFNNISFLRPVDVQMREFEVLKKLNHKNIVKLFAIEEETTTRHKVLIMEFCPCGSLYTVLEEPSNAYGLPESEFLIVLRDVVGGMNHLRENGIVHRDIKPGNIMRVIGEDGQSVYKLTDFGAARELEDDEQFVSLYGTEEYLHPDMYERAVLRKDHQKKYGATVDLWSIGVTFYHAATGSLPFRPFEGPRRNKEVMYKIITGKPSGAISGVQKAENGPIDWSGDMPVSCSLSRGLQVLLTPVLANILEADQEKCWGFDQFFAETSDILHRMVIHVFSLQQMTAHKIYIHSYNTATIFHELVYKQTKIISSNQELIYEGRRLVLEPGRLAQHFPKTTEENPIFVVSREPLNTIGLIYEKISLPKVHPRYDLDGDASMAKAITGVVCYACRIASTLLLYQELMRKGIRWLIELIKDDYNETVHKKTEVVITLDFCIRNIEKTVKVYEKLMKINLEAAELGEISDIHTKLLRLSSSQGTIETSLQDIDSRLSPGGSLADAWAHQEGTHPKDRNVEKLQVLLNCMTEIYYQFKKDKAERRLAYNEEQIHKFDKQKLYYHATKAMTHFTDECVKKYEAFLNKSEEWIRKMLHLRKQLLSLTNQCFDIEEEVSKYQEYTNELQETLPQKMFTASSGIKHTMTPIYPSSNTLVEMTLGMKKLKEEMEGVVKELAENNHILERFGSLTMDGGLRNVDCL

GSK3b, sequence (P49841 whole entry): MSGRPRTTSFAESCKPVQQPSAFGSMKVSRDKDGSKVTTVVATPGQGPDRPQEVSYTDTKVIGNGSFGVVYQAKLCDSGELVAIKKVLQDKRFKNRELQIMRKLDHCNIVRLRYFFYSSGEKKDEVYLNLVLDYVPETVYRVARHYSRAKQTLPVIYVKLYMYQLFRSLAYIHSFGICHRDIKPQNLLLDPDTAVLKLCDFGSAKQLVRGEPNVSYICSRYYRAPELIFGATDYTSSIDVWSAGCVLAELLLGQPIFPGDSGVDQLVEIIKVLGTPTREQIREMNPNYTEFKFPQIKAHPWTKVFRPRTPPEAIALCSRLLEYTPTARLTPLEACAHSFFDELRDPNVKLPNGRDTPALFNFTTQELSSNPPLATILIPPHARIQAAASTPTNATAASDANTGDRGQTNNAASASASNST
CK1g1, sequence (Q9HCP0 whole entry): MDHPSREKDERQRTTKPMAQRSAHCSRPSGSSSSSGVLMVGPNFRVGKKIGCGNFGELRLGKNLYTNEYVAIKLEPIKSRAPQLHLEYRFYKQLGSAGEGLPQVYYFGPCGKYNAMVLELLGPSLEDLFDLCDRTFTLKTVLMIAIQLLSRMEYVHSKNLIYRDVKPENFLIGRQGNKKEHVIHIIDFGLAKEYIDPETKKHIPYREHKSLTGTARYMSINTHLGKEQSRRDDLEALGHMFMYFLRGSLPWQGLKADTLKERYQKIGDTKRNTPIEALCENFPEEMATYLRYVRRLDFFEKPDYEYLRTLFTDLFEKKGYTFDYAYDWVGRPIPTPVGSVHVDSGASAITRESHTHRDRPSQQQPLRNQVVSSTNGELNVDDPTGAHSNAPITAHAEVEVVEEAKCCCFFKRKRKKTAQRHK
MST4, sequence (Q9P289 whole entry): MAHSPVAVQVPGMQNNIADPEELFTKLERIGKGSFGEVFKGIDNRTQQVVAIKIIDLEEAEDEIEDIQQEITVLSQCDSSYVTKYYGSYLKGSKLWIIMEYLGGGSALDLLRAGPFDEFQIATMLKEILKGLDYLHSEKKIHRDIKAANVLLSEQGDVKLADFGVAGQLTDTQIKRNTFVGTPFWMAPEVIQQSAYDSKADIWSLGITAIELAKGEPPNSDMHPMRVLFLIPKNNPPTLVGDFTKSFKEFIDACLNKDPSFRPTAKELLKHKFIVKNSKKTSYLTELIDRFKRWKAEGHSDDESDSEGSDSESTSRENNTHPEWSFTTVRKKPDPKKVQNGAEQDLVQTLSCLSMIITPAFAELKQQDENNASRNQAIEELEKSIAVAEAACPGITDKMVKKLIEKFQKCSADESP
ACK1, sequence (Q07912 whole entry): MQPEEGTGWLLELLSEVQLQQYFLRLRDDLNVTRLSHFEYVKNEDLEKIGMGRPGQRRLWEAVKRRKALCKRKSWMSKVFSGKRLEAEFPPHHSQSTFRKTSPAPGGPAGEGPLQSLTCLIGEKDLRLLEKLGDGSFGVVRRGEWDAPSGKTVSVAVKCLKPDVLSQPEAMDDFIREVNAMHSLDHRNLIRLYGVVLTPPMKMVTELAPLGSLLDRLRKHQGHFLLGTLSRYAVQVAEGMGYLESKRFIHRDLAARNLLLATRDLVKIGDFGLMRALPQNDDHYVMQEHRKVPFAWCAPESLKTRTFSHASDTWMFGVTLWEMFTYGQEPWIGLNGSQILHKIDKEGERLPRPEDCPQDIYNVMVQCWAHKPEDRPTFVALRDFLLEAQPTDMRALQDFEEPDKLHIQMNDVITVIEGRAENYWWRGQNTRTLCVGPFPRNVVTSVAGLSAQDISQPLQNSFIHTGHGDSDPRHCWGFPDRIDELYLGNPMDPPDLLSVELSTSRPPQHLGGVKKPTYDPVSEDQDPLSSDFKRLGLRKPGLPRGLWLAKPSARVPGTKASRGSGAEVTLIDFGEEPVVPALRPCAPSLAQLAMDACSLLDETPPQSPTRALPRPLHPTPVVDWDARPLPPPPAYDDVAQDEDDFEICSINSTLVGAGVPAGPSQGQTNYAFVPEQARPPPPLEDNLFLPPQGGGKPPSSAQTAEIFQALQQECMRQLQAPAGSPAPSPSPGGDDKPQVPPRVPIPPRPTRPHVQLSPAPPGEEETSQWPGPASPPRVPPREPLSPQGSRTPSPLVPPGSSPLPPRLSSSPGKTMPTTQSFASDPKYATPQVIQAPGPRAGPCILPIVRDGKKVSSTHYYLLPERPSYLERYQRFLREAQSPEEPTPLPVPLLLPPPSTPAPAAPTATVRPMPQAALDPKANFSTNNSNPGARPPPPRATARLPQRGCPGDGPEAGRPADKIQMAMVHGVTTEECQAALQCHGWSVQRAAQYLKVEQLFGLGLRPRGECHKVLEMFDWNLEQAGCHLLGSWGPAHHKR
PKCb2, sequence (P05771 1-673 isoform P05771-2): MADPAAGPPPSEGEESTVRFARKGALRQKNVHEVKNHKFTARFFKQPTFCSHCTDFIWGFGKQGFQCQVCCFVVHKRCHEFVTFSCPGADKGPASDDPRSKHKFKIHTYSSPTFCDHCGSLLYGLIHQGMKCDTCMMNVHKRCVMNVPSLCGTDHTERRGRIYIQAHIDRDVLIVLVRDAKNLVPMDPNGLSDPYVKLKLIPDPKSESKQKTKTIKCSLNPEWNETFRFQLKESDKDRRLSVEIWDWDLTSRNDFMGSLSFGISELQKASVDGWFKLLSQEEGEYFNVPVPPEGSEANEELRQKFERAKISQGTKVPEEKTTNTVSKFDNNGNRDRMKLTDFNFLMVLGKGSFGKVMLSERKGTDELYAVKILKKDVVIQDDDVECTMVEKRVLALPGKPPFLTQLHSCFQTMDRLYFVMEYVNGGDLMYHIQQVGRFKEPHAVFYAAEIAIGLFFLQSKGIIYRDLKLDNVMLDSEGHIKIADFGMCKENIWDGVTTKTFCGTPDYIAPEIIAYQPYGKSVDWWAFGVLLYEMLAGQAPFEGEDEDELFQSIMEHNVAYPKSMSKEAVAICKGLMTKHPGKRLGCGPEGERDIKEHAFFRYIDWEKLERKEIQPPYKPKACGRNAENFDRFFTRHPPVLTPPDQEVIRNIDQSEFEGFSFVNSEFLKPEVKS
CDK18/cyclin Y (PCTK3), sequence (Q07002 whole entry): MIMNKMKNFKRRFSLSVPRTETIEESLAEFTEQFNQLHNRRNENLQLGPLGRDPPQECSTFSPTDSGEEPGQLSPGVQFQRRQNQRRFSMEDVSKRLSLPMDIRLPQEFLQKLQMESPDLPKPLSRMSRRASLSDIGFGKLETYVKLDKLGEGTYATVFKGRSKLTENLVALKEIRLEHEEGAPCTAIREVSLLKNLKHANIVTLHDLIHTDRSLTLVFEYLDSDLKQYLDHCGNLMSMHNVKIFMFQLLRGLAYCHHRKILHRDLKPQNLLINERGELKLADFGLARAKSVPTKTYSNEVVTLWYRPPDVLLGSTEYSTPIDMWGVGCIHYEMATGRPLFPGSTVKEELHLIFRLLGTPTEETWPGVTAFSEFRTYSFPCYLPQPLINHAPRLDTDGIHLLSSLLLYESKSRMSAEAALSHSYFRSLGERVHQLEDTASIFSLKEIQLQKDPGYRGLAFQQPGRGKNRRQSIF
CDK18/cyclin Y (PCTK3), sequence (Q8ND76 whole entry partner): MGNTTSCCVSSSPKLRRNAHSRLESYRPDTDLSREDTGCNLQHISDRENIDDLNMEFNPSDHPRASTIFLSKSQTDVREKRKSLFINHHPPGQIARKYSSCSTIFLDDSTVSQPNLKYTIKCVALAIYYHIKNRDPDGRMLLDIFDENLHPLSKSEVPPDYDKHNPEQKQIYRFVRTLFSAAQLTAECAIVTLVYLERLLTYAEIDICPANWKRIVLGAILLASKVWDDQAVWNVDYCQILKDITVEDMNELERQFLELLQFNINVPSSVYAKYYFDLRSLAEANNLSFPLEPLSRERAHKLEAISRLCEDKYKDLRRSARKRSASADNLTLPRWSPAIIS

| Compound | % enzyme activity (MKK7) [%] | % enzyme activity (MST4) [%] | remaining activity at 1 µM (ACK1) [%] | remaining activity at 1 µM (CDK18/cyclin Y (PCTK3)) [%] | remaining activity at 1 µM (CK1g1) [%] | remaining activity at 1 µM (DMPK) [%] | remaining activity at 1 µM (GSK3b) [%] | remaining activity at 1 µM (PKCb2) [%] | remaining activity at 1 µM (TBK1) [%] |
| --- | --- | --- | --- | --- | --- | --- | --- | --- | --- |
| COc1cc(-c2cncc(-c3ccc(N4CCN(C)CC4)cc3)c2C)cc(F)c1C(N)=O [Compound 26a, 2-Fluoro-6-methoxy-4-(4-methyl-5-(4-(4-methylpiperazin-1-yl)phenyl)pyridin-3-yl)benzamide] | 92.71 | 85.32 | 65.5 | 102 | 57.7 | 109 | 88.5 | 107 | 93.6 |
| COc1cc(-c2cncc(-c3ccc(N4C[C@@H](C)N(C)[C@@H](C)C4)cc3)c2C)cc(F)c1C(N)=O [Compound 26c, 2-Fluoro-6-methoxy-4-(4-methyl-5-(4-((3R,5S)-3,4,5-trimethylpiperazin-1-yl)phenyl)pyridin-3-yl)benzamide] | 97.52 | 90.97 | 79.5 | 99 | 71.7 | 105 | 88.8 | 99.1 | 87.2 |
